Patent publication US20250034127A1, “AUTOPHAGY INDUCING COMPOUNDS AND USES THEREOF, IN PARTICULAR FOR DISEASES OF THE CNS” (Samsara Therapeutics Inc., priority 2021, published 2025)

Test system: U2OS cell line stabling expressing RFP-eGFP-hLC3b
Test: Tandem reporter assay (autophagic flux)
Type: cell-based, human
Settings: RFP-only puncta as percentage of DMSO-treated control, 24 hours
Procedure: Selected compounds of this invention were also assessed for their ability to stimulate autophagy using a U2OS cell line stabling expressing RFP-cGFP-hLC3b (a tandem reporter cell line).
During the process of autophagy, the cargo to be degraded is first enveloped by organelles called autophagosomes. These autophagosomes then fuse with lysosomes, causing them to become acidified and their digestive enzymes to become activated. The term “autophagic flux” is used to represent the dynamic process of autophagy: autophagic flux refers to the whole process of autophagy, including autophagosome formation, maturation, fusion with lysosomes, subsequent breakdown and the release of macromolecules back into the cytosol (Zhang X J, Chen S, Huang K X, Le W D. Why should autophagic flux be assessed? Acta Pharmacol Sin. 2013 May; 34 (5): 595-9. doi: 10.1038/aps.2012.184. Epub 2013 Mar. 11). Compounds that stimulate autophagic flux stimulate the dynamic process of autophagy (the whole process of autophagy).
LC3b is a protein found in the membrane of autophagosomes which has been used to generate genetic reporters of autophagy in cells. In these systems a tandem fusion of LC3b is engineered with two fluorescent proteins of different wavelengths: one which is acid sensitive (for example eGFP, which fluoresces green) and the other which is acid insensitive (for example RFP, which fluoresces red). Cells expressing RFP-cGFP-hLC3b can be examined using fluorescent microscopy: the autophagosomes present will fluoresce in both channels (either yellow in an overlay of both channels or puncta that are present in both the individual red and green channels) but the autolysosomes present will fluoresce in the RFP (red) channel only. Using a fluorescent microscope, the number of autophagosomes and autolysosomes can be counted, allowing for the monitoring of both the induction of autophagy (total puncta count) and the rate of autophagic flux (ratio of red-only to red-and-green puncta). The influence of small molecules on autophagy induction and flux can be assessed using this system by comparison to a non-treated control.
Representative Procedure: Human osteosarcoma U2OS cells stably expressing RFP-eGFP-hLC3b were seeded (10,000 cells/well) into a 96-well glass-bottom plate (Cell Carrier Ultra, Perkin Elmer) in DMEM Glutamax media (Gibco) supplemented with 10% Fetal Bovine Serum (FBS) and antibiotics (100 u/ml penicillin, 100 μg/ml streptomycin, Invitrogen), then incubated overnight in a humified atmosphere at 37° C. and 5% CO2. The cells were then treated with the compounds of interest, dissolved in DMSO, in a duplicated 5- or 10-point dose-response. 8 wells were treated with an equivalent volume of DMSO, 4 with […] torin-1 as a positive control (MCE) and 4 wells with 0.4 μM torin-1 plus 0.2 μM bafilomycin (MCE) as a control for flux inhibition. The cells were returned to the incubator and the treatment continued for 24 hours. After treatment, the media was aspirated off and the cells fixed with a solution of 4% formaldehyde+1% glutaraldehyde (Sigma) in dPBS (plus magnesium and calcium, Gibco). Fixation was allowed to proceed for 15 minutes at room temperature then the fixative solution discarded and replaced with PBS (Gibco) plus Hoescht 33342 (1 μg/ml, Sigma). After 30 minutes the plates were imaged on an Opera Phenix confocal microscope (Perkin-Elmer) using a 40× water objective, collecting using DAPI, mCherry and GFP channels. Cells were detected based upon the staining of their nuclei with DAPI using the Harmony image analysis software (Perkin-Elmer) and the number of autophagosomes (GFP and RFP puncta) and autolysosomes (RFP only puncta) per cell were counted using the spot picking function within the software.

Structure (SMILES)	Autolysosome % DMSO activity (compound concentration of 1 μM) [%]	Autolysosome % DMSO activity (compound concentration of 10 μM) [%]
C[C@H]1CN(C(=O)c2csc(-c3cnn(-c4ccc(C5CC5)cc4)c3)n2)CCN1 [Compound 266, (3S)-1-{2-[1-(4-cyclopropylphenyl)-1H-pyrazol-4-yl]-1,3-thiazole-4-carbonyl}-3-methylpiperazine]	176	273
C[C@H]1CN(C(=O)c2csc(-c3cnn(-c4ccc(C(C)(C)C)cc4)c3)n2)CCN1 [Compound 270, (3S)-1-{2-[1-(4-tert-butylphenyl)-1H-pyrazol-4-yl]-1,3-thiazole-4-carbonyl}-3-methylpiperazine]	251	–
CC(C)c1ccc(-n2cc(-c3nc(C(=O)N4CCN[C@@H](C)C4)cs3)cn2)cc1 [Compound 273, (3S)-3-methyl-1-(2-{1-[4-(propan-2-yl)phenyl]-1H-pyrazol-4-yl}-1,3-thiazole-4-carbonyl)piperazine]	224	–
C[C@H]1CN(C(=O)c2nc(-c3cnn(-c4ccccc4)c3)c[nH]2)CCN1 [Compound 279, (3S)-3-methyl-1-[5-(1-phenyl-1H-pyrazol-4-yl)-1H-imidazole-2-carbonyl]piperazine]	123	158
CC1CC(N(C(=O)c2csc(-c3cnn(-c4ccccc4)c3)n2)C(C)C)CCN1 (stereo not drawn) [Compound 297, N-(2-methylpiperidin-4-yl)-2-(1-phenyl-1H-pyrazol-4-yl)-N-(propan-2-yl)-1,3-thiazole-4-carboxamide]	109	119
CC1CC(N(C(=O)c2csc(-c3cnn(-c4ccccc4)c3)n2)C(C)C)CC(C)N1 (stereo not drawn) [Compound 298, N-(2,6-dimethylpiperidin-4-yl)-2-(1-phenyl-1H-pyrazol-4-yl)-N-(propan-2-yl)-1,3-thiazole-4-carboxamide]	187	151
CC(C)N(C(=O)c1csc(-c2cnn(-c3ccccc3)c2)n1)[C@@H]1CN[C@H](C)C1 [Compound 299, N-[(3S,5R)-5-methylpyrrolidin-3-yl]-2-(1-phenyl-1H-pyrazol-4-yl)-N-(propan-2-yl)-1,3-thiazole-4-carboxamide]	162	152
